Reference: US8882877B2, “Boron-containing synergistic urea and preparation method and application thereof” (Beijing J-Tec Technology Co., Ltd, priority 2012, dated 2014)

Assays:
celery = assay: Celery fertilizer test (equivalent and decrement fertilizer); format: in vivo
Text: Test Three: Celery Fertilizer Test 1. Test material: The tested fertilizer is the boron-containing synergistic urea developed and supplied by Beijing J-Tec Technology Co., Ltd. (the boron-containing synergistic urea (1) in Embodiment 3) while the control fertilizer is ordinary small granular urea and large granular urea in line with national standards: the tested vegetable is celery. Area under jurisdiction of […], Shandong Province 3. Test Method: equivalent fertilizer test area and decrement fertilizer test area are arranged, two treatment areas are provided in each test area, and each treatment area is arranged repeatedly for 3 times, ranked in random area and group. Treatment Area 1: the boron-containing synergistic urea is applied, calculated by 70 kg per mu, and flushed together with water after emergence of seedlings; Treatment Area 2: ordinary small granular urea (as a control area, ck), calculated by 70 kg per mu, and flushed together with water after emergence of seedlings. Treatment Area 1: the boron-containing synergistic urea is applied with a decrement of 20%, calculated by 56 kg per mu, base fertilizer and additional fertilizer each makes up 50%; Treatment Area 2: ordinary large granular urea, calculated by 70 kg per mu, base fertilizer and additional fertilizer each makes up 50%. 4. Test Requirement: The celery in each treatment area is harvested, weighed, and calculated separately during each collection and harvest. No other fertilizer is applied during the whole test period, and other cultivation and management measures are the same.

tomato = assay: Tomato fertilizer test (equivalent and decrement fertilizer); format: in vivo
Text: Test Four: Tomato Fertilizer Test
Test Site Laiyang: City, Shandong Province.
Grow seedling in greenhouse at Feb. 24, 2011, and plant in the greenhouse with a tomato plantation density of 4200 plant/mu.
(§1) 1. The tested fertilizer is the boron-containing synergistic urea developed and supplied by Beijing J-Tec Technology Co., Ltd. (the boron-containing synergistic urea (1) in Embodiment 3, under a trade name of “polypeptide chelated potassium”) while the control fertilizer is ordinary small granular urea and large granular urea in line with national standards; the tested vegetable is tomato (variety of “Millennium”, ? ).
(§2) 2. Test Method: equivalent fertilizer test area and decrement fertilizer test area are arranged, two treatment areas are provided in each test area, and each treatment area is arranged repeatedly for 3 times, ranked in random area and group, each treatment area has an area of 20 m^2 (5 m long, 4 m wide).
Treatment Area 1: the boron-containing synergistic urea is applied, calculated by 70 kg per mu, and flushed together with water after emergence of seedlings;
Treatment Area 2: ordinary small granular urea (as a control area, ck), calculated by 70 kg per mu, and flushed together with water after emergence of seedlings.
Treatment Area 1: the boron-containing synergistic urea is applied with a decrement of 20%, calculated by 56 kg per mu, base fertilizer and additional fertilizer each makes up 50%;
Treatment Area 2: ordinary large granular urea (as a control area, ck), calculated by 70 kg per mu, base fertilizer and additional fertilizer each makes up 50%.
3. Test Requirement: The tomato in each treatment area is harvested, weighed, and calculated separately during each collection and harvest. No other fertilizer is applied during the whole test period, and other cultivation and management measures are the same.
Select one plot (12 plots in total, indicated as 1st plot, 2nd plot and 3rd plot corresponding to each test) randomly from each treatment area 1 and treatment area 2 (control area) respectively, all are 1 m long, 1.45 m wide, and the harvested tomato is weighed on site, and results are as follows: […]

soybean = assay: Soybean fertilizer field plot test; format: in vivo
Text: Test One: Soybean Fertilizer Test During the process of growth, the moisture and temperature are basically normal, which have no particular influence on the test. The basic information for the test plot is: mound albic soil, organic matter content 3.73%, and thickness of black soil layer is 18-20 cm, 1. The tested fertilizer is the boron-containing synergistic urea developed and supplied by Beijing J-Tec Technology Co., Ltd. (the boron-containing synergistic urea (1) in Embodiment 3) while the control fertilizer is ordinary urea available in the market. 2. Field tests adopt plot test (the test plot is located in Haluo Town, […], Shandong Province), three test areas are provided, each test area is divided into three treatment areas, each treatment area is 25.2 m^2, and the three test areas are tested in parallel. Apply base fertilizers uniformly in each test area and sow 4 rows in each treatment area, and subsequently apply additional fertilizers in the three treatment areas as below: Treatment Area 1: additionally apply 5 kg boron-containing synergistic urea once per mu in the flowering and pod bearing period of the soybean; Treatment Area 2: additionally apply 4 kg boron-containing synergistic urea once per mu in the flowering and pod bearing period of the soybean; Treatment Area 3 (control area, ck): additionally apply 5 kg ordinary urea once per mu in the flowering and pod bearing period of the soybean as a control; 4. Adopt normal field management in the growth period of the soybean, harvest and monitor the yield in the mature period respectively, and take the average values of the corresponding treatment areas in the three test areas as the statistical results, see Table 1.

bacterial wilt = assay: Tomato disease resistance: incidence of bacterial wilt; format: in vivo; details: tomato plants in test area vs control area (ck)
Text: as §1, §2
1. Tomato Growing Potential and Disease Resistance

apple tree = assay: Apple tree fertilizer test (equivalent and decrement fertilizer); format: in vivo, apple tree (Red Fuji apple); details: Control Test Area, ordinary urea 70 kg per mu
Text: Test Five: Apple Tree Fertilizer Test 1. Test Fertilizer: the tested fertilizer is the boron-containing synergistic urea developed and supplied by Beijing J-Tec Technology Co., Ltd. (the boron-containing synergistic urea (1) in Embodiment 3) while the control fertilizer is ordinary small granular urea and large granular urea in line with national standards the tested fruit tree is apple tree (variety of “Red Fuji apple”, ? ). 2. Test Site: […], Shandong Province, 3. Tested Variety: apple tree of four years old, variety is Red Fuji apple, planting space is 2 m×3 m, plants with moderate growth, similar tree vigor, and substantially consistent yield, and conventional orchard management is conducted before the test. 4. Test Method: equivalent fertilizer test area and decrement fertilizer test area are arranged, two treatment areas are provided in each test area, 3 tested plants are included in each treatment area and each treatment area is arranged repeatedly for 3 times, ranked in random area and group; The fertilizer is applied in small holes near the plants, and the fertilizing periods are fertilizer application after leaves falling in autumn and additional fertilizer application during fruit expanding period (July and August). Treatment Area 1: the boron-containing synergistic urea is applied, calculated by 70 kg per mu, and flushed together with water; Treatment Area 2: ordinary small granular urea (as a control area, ck), calculated by 70 kg per mu, and flushed together with water. Treatment Area 1: the boron-containing synergistic urea is applied with a decrement of 20%, calculated by 56 kg per mu, base fertilizer and additional fertilizer each makes up 50%; Treatment Area 2: ordinary large granular urea (as a control area, ck), calculated by 70 kg per mu, base fertilizer and additional fertilizer each makes up 50%. Make statistical analysis to flowering numbers and petal numbers in each flower during full-blossom period in spring, and make statistical analysis to fruit setting percentage after full-blossom period and before flower thinning. Measure and record once a month after growth of new shoots; Pick 30 fruits randomly from different portions after fruit ripening, and weigh the single fruit with an electronic balance scale, measure the longitudinal diameter and the transverse diameter with a vernier caliper; observe the fruit surface and the coloring of the fruit; determine the hardness of fruit with a hardometer.

rape = assay: Rape fertilizer test (topdressing); format: in vivo; details: topdressing 20 kg per mu
Text: Test Two: Rape Fertilizer Test 1. Test Material: The tested fertilizer is the boron-containing synergistic urea developed and supplied by Beijing J-Tec Technology Co., Ltd. (the boron-containing synergistic urea (1) in Embodiment 3) while the control fertilizer is ordinary urea available in the market. Nanyang site: Yuanxiang Village, Nanyang Town, Qidong City of Jiangsu Province, an area of 4 mu, rape variety is “Shi Li Jia ? )”. Lvsi site: Nanxinqiao Village, […] Town, Qidong City, an area of 5 mu. 3. Test Method: the boron-containing synergistic urea is used as a topdressing fertilizer (additional fertilizer), 20 kg per mu; while the control field adopts ordinary urea (commercially available), 20 kg per mu. 4. Assessment Content: prior to harvest, field assessments such as density, plant height, effective branch, yield structure are conducted; after harvest, recount the actual yield, and the results are shown in Table 3.

[1] = Decrement fertilizer test (56 kg per mu) and its control (70 kg per mu)
[2] = Decrement fertilizer test (synergistic urea 56 kg per mu) and its control (large granular urea 70 kg per mu)
[3] = Equivalent fertilizer test and its control, 70 kg per mu
[4] = Equivalent fertilizer test and its control, 70 kg per mu, flushed with water
[5] = Treatment Area 1 / 3 (ck): 5 kg per mu
[6] = Treatment Area 1 / 3 (ck): 5 kg per mu once in flowering and pod bearing period
[7] = Lvsi site, two months after fertilizer application
[8] = Nanyang site, two months after fertilizer application

## NC(N)=O [ordinary large granular urea, urea]
celery; 20% decrement fertilizer test, 1st plot, synergistic urea 56 kg per mu, control large granular urea 70 kg per mu
  Yield: 6.8 kg
celery; 20% decrement fertilizer test, 2nd plot, synergistic urea 56 kg per mu, control large granular urea 70 kg per mu
  Yield: 6.0 kg
celery; 20% decrement fertilizer test, 3rd plot, synergistic urea 56 kg per mu, control large granular urea 70 kg per mu
  Yield: 5.7 kg
celery; 20% decrement fertilizer test, three plots in total, synergistic urea 56 kg per mu, control 70 kg per mu
  Yield: 18.5 kg
celery; Decrement fertilizer test, 30 days after sowing
  observation of celery leaves: green and thin leaves
tomato; [1]
  Average Yield among three plots: 116.0 kg
  Average Yield per mu: 3896.7 kg
tomato; [2]
  Yield 1st plot: 114.3 kg
  Yield 2nd plot: 118.1 kg
  Yield 3rd plot: 115.6 kg

## NC(N)=O [ordinary small granular urea, urea]
celery; Equivalent fertilizer test, 70 kg per mu, 1st plot (1 m x 1.45 m), 52 days after applying fertilizer
  Yield: 6.6 kg
celery; Equivalent fertilizer test, 70 kg per mu, 2nd plot, 52 days after applying fertilizer
  Yield: 7.5 kg
celery; Equivalent fertilizer test, 70 kg per mu, 3rd plot, 52 days after applying fertilizer
  Yield: 8.15 kg
celery; Equivalent fertilizer test, 70 kg per mu, three plots in total
  Yield: 22.25 kg
tomato; [3]
  Average Yield among three plots: 114.5 kg
  Average Yield per mu: 3863.3 kg
tomato; [4]
  Yield 1st plot: 111.6 kg
  Yield 2nd plot: 113.8 kg
  Yield 3rd plot: 118.0 kg

## NC(N)=O [ordinary urea, urea]
soybean; [5]
  Practical Yield: 131.8 kg/mu
  Theoretical Yield: 134.5 kg/mu
soybean; [6]
  100-Grain Weight: 15.7 g
  Diseased Grain Rate: 9.7%
  Grains Weight: 7.5 g/Plant
  Grains per Plant: 65.8 Grains/Plant
  Plant Height: 77.4 cm
  Unfilled Grains: 28.9 Grains/Plant
  Worm Eaten Rate: 17.9%
  pods per plant: 30.1 Pods/Plant
Bacterial wilt
  incidence of bacterial wilt: 4.54%
Apple tree
  Fruit Setting Percentage: 74.6%
  Increment of New Shoots: 34.50 cm
  Leaf Weight: 79.74 g
  Single Fruit Weight: 202.1 g
rape; Average of the two test sites
  1000-Grain Weight: 4.1 g
  Density: 5550 plant
  Effective Branch: 27 each
  Grains per pod: 19.8 grain
  Plant Height: 190.5 cm
  Yield: 262.7 kg/mu
  pods per plant: 583 pod
rape; Lvsi site
  Yield: 251.7 kg/mu
rape; [7]
  1000-Grain Weight: 3.7 g
  Density: 5550 plant
  Effective Branch: 26 each
  Grains per pod: 20.5 grain
  Plant Height: 185 cm
  pods per plant: 598 pod
rape; Nanyang site
  Yield: 269.5 kg/mu
rape; [8]
  1000-Grain Weight: 4.5 g
  Density: 5550 plant
  Effective Branch: 28 each
  Grains per pod: 19 grain
  Plant Height: 196 cm
  pods per plant: 568 pod
